Columns and labels:
[1] = animal tests, literature report; cited from earlier work
[2] = system: CCl4 intoxicated mice (SGPT); experiment: Hepatoprotective action: SGPT of CCl4 intoxicated mice; format: in vivo, mouse (male Kunming strain); details: 250 mg/kg × 2 orally at 8 h interval, 0.1% CCl4 10 ml/kg injected 24 h after second dose, 9 mice per group; P <0.01; control 1678 + 261
Protocol: Male Kunming strain mice weighing 18-22 grams were used throughout the experiments. The compounds to be tested were suspended in 5% Tween 80 and given orally by gavage. The vehicle of 5% Tween 80 solution was administered to control mice via the same route. In in vitro experiments, the compounds were dissolved in dimethylformamide and added directly into the incubation mixture.
Mice were divided into several groups. The control group was administered the vehicle. The other groups were given two doses (250 mg/kg) of the compound at an interval of 8 h, respectively. 10 ml/kg of 0.1% CCl4 in vegetable oil was injected in 24 h after the second administration of the compound. The mice were fasted for 16 h and sacrificed by decapitation. SGPT and liver lipids were determined. A piece of liver was processed into sections for pathological observation.

[3] = system: male rats, retrograde amnesia under hypoxia; experiment: Retrograde amnesia (rat) under hypoxic conditions; format: in vivo; details: 100 mg/kg p.o., hypoxia 3.8% oxygen, 15 animals per group
Protocol: The apparatus (39 cm long, 21 cm high, and 21 cm wide) consists of two compartments, one made of translucent plastic (29 cm long) and the other one painted black (10 cm long) It has a bottom of spaced metal grids which are connected to a stimulating device delivered 1.6 mA for 20 s.
Both compartments are connected via a door which can be closed.
Male rats (100-120 g body weight) will be placed individually in the large compartment and allowed to explore both compartments for 3 min.
Thereafter the animals are placed in the small (dark) compartment, the connecting door is closed and the foot shock is delivered. After that the animals are put in an air-tight cage which is prefused by a gas mixture containing 3.8% oxygen and 96.2% nitrogen.
24 hours later the rats are placed again in the bright compartment. The observation time is 3 min.
One experiment is performed in three groups of 15 animals each:
Group A: control group, not exposed to hypoxia
Group B: control group, receiving hypoxia after first training
Group C: treated animals, receiving hypoxia after first training.
Evaluation: the times the animals need to enter the dark compartment are measured in seconds. […]
The time difference between the control group B and the treated group C is calculated in percent (C-B=X%). X is considered to be measured for the potency of the antiamnestic effect of the substance tested.

| SMILES | spasmolytic activity [1] | SGPT units % X ± SE [2] | X (antiamnestic effect, C-B in percent of A-B) [3] [%] |
| --- | --- | --- | --- |
| C=CC(C)(C)c1cc2cc3c(cc2oc1=O)OC1(C)CCC(C(C)(C)O)OC1C3 (stereo not drawn) [Clausmarin A] | showed spasmolytic activity |  |  |
| CN1C=C(c2ccccc2)C(c2ccccc2)C(O)C1=O (stereo not drawn) [Example 1] |  | 739 + 196 units % | 11 |
